Measured values published in publication PMC5454592, “Pharmacological and Toxicological Properties of the Potent Oral γ-Secretase Modulator BPN-15606” (The Journal of Pharmacology and Experimental Therapeutics, 2017).

Experiments:
[1] = Metabolite identification in cryopreserved hepatocytes; assay type: in vitro ADME, mouse, rat, dog, monkey, human; conditions: hepatocyte cultures from five species
Description: Test compound (1 μM) was incubated at 37°C for 4 hours with cryopreserved mouse, rat, dog, monkey, or human hepatocytes. Identification of metabolites’ molecular weights and relative abundance of the specific metabolites was based on high performance liquid chromatography (HPLC)/MS/MS peak areas, and structural characterization of metabolites was accomplished by LC/MS/MS/Q-Trap.

[2] = PK in nonhuman primates (i.v./po); assay type: in vivo; conditions: male, cynomolgus monkey, plasma; cynomolgus monkeys; 2 mg/kg po vs 1 mg/kg i.v.
Description: Male non-naive cynomolgus monkeys (NHP) were administered BPN-15606 as a single nasogastric (po; 2 mg/kg) or i.v. (1 mg/kg) dose to assess oral bioavailability. Whole-blood samples were collected at specific time points and processed to plasma. Study in-life was conducted at Charles River Laboratories (Reno, NV). Pharmacokinetic (PK) plasma samples were shipped to SRI International for determination of drug concentrations. Samples were analyzed at SRI International using the bioanalytical method described above and validated for NHP plasma, and the LLOQ was 1 ng/ml. Data were subjected to noncompartmental analysis using WinNonlin Phoenix Model 200 (for extravascular administration) or Model 201 (for i.v. bolus administration) and the sparse sampling feature; a uniform weighting factor was applied to each data set. Time to maximum plasma concentration (Tmax) and maximum plasma concentration (Cmax) values were determined directly from the data. Area under the plasma concentration–time curve to the last time point (AUClast) values were calculated using the log/linear trapezoidal (i.v. dose) or linear up/log down trapezoidal (po dose). Values were calculated using the plasma data from composite groups. The dose administered was input to the program as mg/kg, and as a result no additional corrections for individual body weights of the animals were necessary. […]

[3] = Repeat-dose (9-day) efficacy study in rats; assay type: in vivo, Sprague–Dawley rats; conditions: male, Sprague-Dawley, rat, in vivo
Description: Male C57BL/6J mice (n = 10/dose level) and male Sprague–Dawley rats (n = 14/dose level) were administered either vehicle (80% polyethylene glycol 400 v/v; 20% sterile water v/v and 0.1% Tween 20 v/v) or BPN-15606 (10, 25, and 50 mg/kg) once daily po for 7 consecutive days (mice) or 5, 25, and 50 mg/kg once daily po for 9 consecutive days (rats). […] Animals were sacrificed 4 hours following the dosing on day 7 of the 7-day oral treatment course (mice) and on day 9 of the 9-day oral treatment course (rats). Plasma and brain extracts were prepared (mice and rats); CSF was aspirated from the cisterna magnum with minimal to no blood contamination (rats only); and tissues were frozen at −70°C. Aβ peptides were quantitated in brain extracts and plasma (mice) or CSF and plasma (rats), as described previously, using Meso Scale multiplex kits and the Meso Scale Sector Imager 6000 ([Kounnas et al., 2010]). Statistical analysis was performed using GraphPad Prism software, and results are expressed as mean ± S.E.M. Analysis of variance was used to detect a significant effect. Drug levels of BPN-15606 were measured in plasma and brain extracts using the bioanalytical methods detailed above.

HReN-mGAP AD ReN cells = experiment: CytoTox-ONE (lactate dehydrogenase) assay in 3D culture; assay type: cell-based; conditions: 70 nM; 1-week-old treated media
Description: HReN-mGAP AD ReN cell expression APP^Swedish/London and Presenilin 1^ΔE9 were previously described ([Choi et al., 2014]). The HReN-mGAP AD ReN cells were three-dimensional (3D)–differentiated for 7 weeks, as previously described ([Choi et al., 2014]). The cultures were then harvested and analyzed for the soluble (conditioned media) and insoluble Aβ40/42/38 and p-tau/tau levels, using Meso Scale Discovery electrochemiluminescence system. BPN-15606 (70 nM) and the same volume of DMSO controls were treated in the last 4 weeks. The potential toxicity of the drugs was monitored by CytoTox-ONE (lactate dehydrogenase) assay after 1 week of the treatments. At the end of the treatments, the soluble (media) and the insoluble fractions (5 M GuHCl-soluble extracts) were collected and analyzed for Aβ38, Aβ40, and Aβ42 with MSD enzyme-linked immunosorbent assay (ELISA; V-Plex 6E10 Aβ40/Aβ42/Aβ38 kit). The custom-made plates were used for detecting total tau (BT2; ThermoFisher Scientific, Sommerset, NJ) and pThr181 tau (At270; ThermoFisher Scientific, Sommerset, NJ). The insoluble fraction was dissolved in 5 M GuHCl, and pThr181 tau, total tau, Aβ40, Aβ42, and Aβ38 concentrations were determined by MSD ELISA. The levels of the control protein Tuj1 were determined by dot-blot analysis in the GuHCl lysates (data not shown).

In the case of `COc1nc(-c2cc(C)c(N[C@@H](C)c3ccc(F)cc3)nn2)ccc1-n1cnc(C)c1` [BPN-15606, (S)-N-(1-(4-fluorophenyl)ethyl)-6-(6-methoxy-5-(4-methyl-1H-imidazol-1-yl)pyridin-2-yl)-4-methylpyridazin-3-amine], the uniquely human metabolites [1] is reported as “absence of any unique human metabolites”, the uniquely human metabolites ([1]; listed as BPN-15605) is reported as “no uniquely human metabolites identified” and the bioavailability [2] is reported as 30.8%. The NOAEL at 9 days [3] was 50 mg/kg and the “toxicity (Cytotox cell death lactate dehydrogenase assay)” value (HReN-mGAP AD ReN cells) was “did not induce any significant toxicity”.
